The subject of experiment [1] is mouse imiquimod-induced psoriasis model. Briefly: Ear thickening suppression test using mouse imiquimod-induced psoriasis model. Format: in vivo. The note with it: topical, 120 h, thickness measured on day 5, BALB/c mice, read-out: rate of inhibition of increase in right auricle thickness; for inhibition in vivo at 1 %: application of a 1% solution in methanol for 4 days; for inhibition in vivo at 0.01 %: application of a 0.01% methanol solution for 4 days. As for the experimental part: Ear Thickening Suppression Test Using Mouse Imiquimod-Induced Psoriasis Model
An imiquimod-induced psoriasis model test was carried out by modifying the method of Leslie van der Fits et al. (J. Immunol. 182, 5836 (2009)). BALB/c mice were used (female, supplied by Charles River Laboratories Japan, Inc.) as laboratory animals. On the start day of the test, the thicknesses of the right auricles of the mice were measured with a thickness gauge (model SMD-565J manufactured by TECLOCK Corp.). A test compound solution or only a solvent was applied or orally administered, and after 60 minutes, 5 mg of imiquimod (Beselna Cream 5% manufactured by Mochida Pharmaceutical Co., Ltd.) was applied to the insides of the right auricles. The test compound solution or solvent administration and the imiquimod application were carried out for 4 days, and the thicknesses of the right auricles were measured again on day 5. When increase in the thicknesses of the right auricles of the solvent-administered group on day 5 was defined as 100%, the rate of inhibition of increase (%) at each dose of the test compound was calculated.

Experiment [2] concerns human large intestine cancer cell line (HCT-116). Briefly: Human large intestine cancer (HCT-116) cell growth inhibition test. Format: cell-based. The settings on record: 72 h, HCT-116, culture for 3 days, sulforhodamine B absorbance. The procedure, abridged:
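HCT-116 cells seeded at 1.0×10^3 cells/well in McCoy's 5a with 10% FBS, then exposed to compound (0.1% DMSO final) for 3 days. Growth measured by sulforhodamine B absorbance; IC50 derived from concentration-inhibition data.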

In another experiment the target is T1, PAK4 (Homo sapiens, UniProt O96013).
T1 construct: purchased Invitrogen Corp. PV4212
The experiment can be described thus: PAK4 enzyme inhibition test. The note with it: Ki=IC50/(1+S/Km); 33P bound to MBP, [γ-33P]ATP, 30° C. for 20 minutes; read-out: Ki value of PAK4 inhibitory activity. The class given is biochemical. Here is the method:
PAK4 Enzyme Inhibition Test
The preparation of a buffer solution was performed by mixing a trishydroxyaminomethane buffer solution (Tris buffer solution) (pH 7.5), DTT, Triton X-100, MgCl2, ethylene glycol bis(β-aminoethyl ether)-N,N,N′,N′-tetraacetic acid (EGTA), (3-glycerol phosphate, and sodium orthovanadate(V). A 40 μM [γ-^33P]ATP solution was used by diluting a 10 mM ATP solution and a commercially available [γ-^33P]ATP solution (manufactured by PerkinElmer, Inc., Code No. NEG-302H) with the buffer solution. A PAK4 solution was used by diluting commercially available PAK4 (manufactured by Invitrogen Corp., Catalog No. PV4212) with the buffer solution. A substrate solution was used by diluting MBP with the buffer solution. As for the preparation of a reaction solution, the buffer solution, the 40 μM [γ-^33P]ATP solution, the PAK4 solution, and the substrate solution were mixed at 4° C. to obtain a reaction solution.
(§1) PAK4 enzyme reaction was performed by adding 5 μL of a test compound solution prepared with 10% DMSO/90% injectable distilled water, and 45 μL of the reaction solution in a 1.5 mL microtube at 4° C. and reacting in the microtube at 30° C. for 20 minutes in a water bath incubator. After the reaction, a 10% aqueous TCA solution was added to each microtube while cooled to 4° C., and mixed to terminate the reaction. The resultant was left standing at 4° C. for 10 minutes and then centrifuged in a centrifuge, and the supernatant was discarded. Next, a 2% aqueous TCA solution was added, mixed, and then centrifuged in a centrifuge, and the supernatant was discarded. This washing operation was performed twice. After the washing, precipitates were dissolved in a 1 N aqueous NaOH solution, and the radioactivity was measured with a liquid scintillation counter.
The calculation of the inhibitory activity of the test compound against PAK4 was performed as a test compound concentration inhibiting 50% of the amount of ^33P bound to MBP (IC50 value) by using EXSUS (version 8.0.0 or version 8.0.1, manufactured by CAC Exicare Corp.).
(§2) The calculation of a Ki value was performed according to the following calculation expression. S means the concentration of ATP contained in the reaction solution, and Km means a Michaelis-Menten constant. Ki=IC50/(1+S/Km)

The target in a further experiment is T2, CDK2 (Homo sapiens, UniProt P24941).
T2 construct: purchased Invitrogen Corp. PV3267
Briefly: CDK2 enzyme inhibition test. Format: biochemical. The settings on record: Ki=IC50/(1+S/Km); 33P bound to MBP, [γ-33P]ATP, 30° C. for 20 minutes; read-out: Ki value of CDK2 inhibitory activity. Here is the method:
CDK2 Enzyme Inhibition Test
The preparation of a buffer solution was performed by mixing a HEPES buffer solution (pH 7.4), DTT, Triton X-100, and MgCl2. A 500 μM [γ-^33P]ATP solution was used by diluting a 10 mM ATP solution and a commercially available [γ-^33P]ATP solution (manufactured by PerkinElmer, Inc., Code No. NEG-302H) with the buffer solution. A CDK2 solution was used by diluting commercially available CDK2 (manufactured by Invitrogen Corp., Catalog No. PV3267) with the buffer solution. A substrate solution was used by diluting MBP with the buffer solution. As for the preparation of a reaction solution, the buffer solution, the 500 μM [γ-^33P]ATP solution, the CDK2 solution, and the substrate solution were mixed at 4° C. to obtain a reaction solution.
as §1, with “CDK2” for “PAK4”, “mixed thereto,” for “mixed,”
The calculation of the inhibitory activity of the test compound against CDK2 was performed as a test compound concentration inhibiting 50% of the amount of ^33P bound to MBP (IC50 value) by using EXSUS (version 8.0.0 or version 8.0.1, manufactured by CAC Exicare Corp.).
as §2

The next experiment addresses T3, CDK7 (Homo sapiens, UniProt P50613).
T3 construct: purchased Carna Biosciences, Inc. 04-108
Briefly: CDK7 enzyme inhibition test. The class given is biochemical. The note with it: Ki=IC50/(1+S/Km); 33P bound to MBP, [γ-33P]ATP, 30° C. for 20 minutes; read-out: Ki value of CDK7 inhibitory activity. The essentials:
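Recombinant CDK7 with MBP substrate and [γ-33P]ATP (500 μM solution, diluted into the mix) in HEPES pH 7.4/DTT/Triton X-100/MgCl2, 20 min at 30 °C. TCA-precipitated 33P-MBP counted by scintillation; IC50 from inhibition, Ki = IC50/(1+S/Km).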

Drawing on US10131679B2, “Substituted dihydropyrrolopyrazole compound” (UBE INDUSTRIES, LTD., priority 2014, dated 2018), this text covers inhibition in vivo, IC50 and Ki for eleven compounds.

The structures appear in SMILES notation.

T1 sequence (O96013 whole entry): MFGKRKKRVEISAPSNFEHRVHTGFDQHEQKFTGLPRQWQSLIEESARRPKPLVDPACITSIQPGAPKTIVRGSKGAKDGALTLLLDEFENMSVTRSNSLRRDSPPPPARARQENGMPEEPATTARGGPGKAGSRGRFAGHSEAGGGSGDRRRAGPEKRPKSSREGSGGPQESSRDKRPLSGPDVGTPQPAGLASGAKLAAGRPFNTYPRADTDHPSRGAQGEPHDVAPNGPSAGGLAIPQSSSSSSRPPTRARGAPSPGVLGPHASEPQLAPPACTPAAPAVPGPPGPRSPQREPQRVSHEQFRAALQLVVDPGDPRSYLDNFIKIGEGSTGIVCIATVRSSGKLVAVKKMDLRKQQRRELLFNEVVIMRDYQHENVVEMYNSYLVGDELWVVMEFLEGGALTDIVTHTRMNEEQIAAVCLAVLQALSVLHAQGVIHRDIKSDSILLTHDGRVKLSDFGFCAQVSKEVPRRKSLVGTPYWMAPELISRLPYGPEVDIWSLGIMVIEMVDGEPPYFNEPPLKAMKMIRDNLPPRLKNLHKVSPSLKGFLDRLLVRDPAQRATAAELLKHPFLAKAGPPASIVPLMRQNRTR
T3 sequence (P50613 whole entry): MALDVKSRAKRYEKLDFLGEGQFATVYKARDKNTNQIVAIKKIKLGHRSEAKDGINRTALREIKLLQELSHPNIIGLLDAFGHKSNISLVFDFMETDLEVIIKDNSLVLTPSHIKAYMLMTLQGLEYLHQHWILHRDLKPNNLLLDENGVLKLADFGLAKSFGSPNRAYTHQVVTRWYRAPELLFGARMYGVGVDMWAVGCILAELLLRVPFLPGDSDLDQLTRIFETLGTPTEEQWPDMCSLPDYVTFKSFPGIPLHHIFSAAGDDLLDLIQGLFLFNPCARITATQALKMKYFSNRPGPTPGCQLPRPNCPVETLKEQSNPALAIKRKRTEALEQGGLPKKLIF
T3 sequence (P51946 whole entry partner): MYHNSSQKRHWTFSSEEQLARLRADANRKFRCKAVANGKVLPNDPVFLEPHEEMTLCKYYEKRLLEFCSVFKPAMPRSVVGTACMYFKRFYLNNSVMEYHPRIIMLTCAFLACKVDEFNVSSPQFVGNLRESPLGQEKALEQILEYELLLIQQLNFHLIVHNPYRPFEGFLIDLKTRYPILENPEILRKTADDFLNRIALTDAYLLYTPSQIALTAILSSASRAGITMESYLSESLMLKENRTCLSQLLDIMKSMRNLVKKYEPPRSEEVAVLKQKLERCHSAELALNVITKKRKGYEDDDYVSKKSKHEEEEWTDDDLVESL
T3 sequence (P51948 whole entry partner): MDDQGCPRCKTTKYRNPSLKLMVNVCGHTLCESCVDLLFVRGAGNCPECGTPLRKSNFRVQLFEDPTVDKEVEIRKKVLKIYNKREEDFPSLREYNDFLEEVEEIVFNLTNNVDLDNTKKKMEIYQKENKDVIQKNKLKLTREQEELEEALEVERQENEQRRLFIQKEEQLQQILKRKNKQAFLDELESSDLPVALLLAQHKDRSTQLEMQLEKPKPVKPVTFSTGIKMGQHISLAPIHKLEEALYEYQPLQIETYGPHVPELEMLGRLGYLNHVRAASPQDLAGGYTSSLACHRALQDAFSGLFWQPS

As to `CCCCCCCC(=O)OC[C@@H](NC(=O)N1Cc2c(NC(=O)C3([Si](C)(C)C)CCC3)n[nH]c2C1(C)C)c1ccccc1` [V-1470, (S)-2-{6,6-Dimethyl-3-[1-(trimethylsilyl)cyclobutanecarboxamido]-1,4,5,6-tetrahydropyrrolo[3,4-c]pyrazole-5-carboxamido}-2-phenylethyl octanoate], the inhibition in vivo at 1 % in experiment [1] was at least 50%.

In the case of `CCCCO[C@@H](C(=O)N1Cc2c(NC(=O)C3([Si](C)(C)C)CCC3)n[nH]c2C1(C)C)c1ccccc1` [IV-1200, (R)—N-[5-(2-Butoxy-2-phenylacetyl)-6,6-dimethyl-1,4,5,6-tetrahydropyrrolo[3,4-c]pyrazol-3-yl]-1-(trimethylsilyl)cyclobutanecarboxamide], the inhibition in vivo at 0.01 % in experiment [1] was at least 50%.

Regarding `CCC(=O)OC[C@@H](NC(=O)N1Cc2c(NC(=O)C3([Si](C)(C)C)CCC3)n[nH]c2C1(C)C)c1ccccc1` [V-1446, (S)-2-{6,6-Dimethyl-3-[1-(trimethylsilyl)cyclobutanecarboxamido]-1,4,5,6-tetrahydropyrrolo[3,4-c]pyrazole-5-carboxamido}-2-phenylethyl propionate], the inhibition in vivo at 1 % in experiment [1] was at least 50%.

Turning to `CC(C)(C)C(=O)OC[C@@H](NC(=O)N1Cc2c(NC(=O)C3([Si](C)(C)C)CCC3)n[nH]c2C1(C)C)c1ccccc1` [V-1462, (S)-2-{6,6-Dimethyl-3-[1-(trimethylsilyl)cyclobutanecarboxamido]-1,4,5,6-tetrahydropyrrolo[3,4-c]pyrazole-5-carboxamido}-2-phenylethyl pivalate], the inhibition in vivo at 1 % in experiment [1] was at least 50%.

Turning to `CCCCCCCCCCCC(=O)OC[C@@H](NC(=O)N1Cc2c(NC(=O)C3([Si](C)(C)C)CCC3)n[nH]c2C1(C)C)c1ccccc1` [V-1474, (S)-2-{6,6-Dimethyl-3-[1-(trimethylsilyl)cyclobutanecarboxamido]-1,4,5,6-tetrahydropyrrolo[3,4-c]pyrazole-5-carboxamido}-2-phenylethyl dodecanoate], the inhibition in vivo at 1 % in experiment [1] is at least 50%.

For `CC(=O)OC[C@@H](NC(=O)N1Cc2c(NC(=O)C3([Si](C)(C)C)CCC3)n[nH]c2C1(C)C)c1ccccc1` [V-1442, (S)-2-{6,6-Dimethyl-3-[1-(trimethylsilyl)cyclobutanecarboxamido]-1,4,5,6-tetrahydropyrrolo[3,4-c]pyrazole-5-carboxamido}-2-phenylethyl acetate], the inhibition in vivo at 1 % in experiment [1] is at least 50%.

Turning to `COCC(C)(C)C(NC(=O)N1Cc2c(NC(=O)C3([Si](C)(C)C)CCC3)n[nH]c2C1(C)C)c1ccccc1` (centres unmarked) [IV-676, N-(3-Methoxy-2,2-dimethyl-1-phenylpropyl)-6,6-dimethyl-3-[1-(trimethylsilyl)cyclobutanecarboxamido]-4,6-dihydropyrrolo[3,4-c]pyrazole-5(1H)-carboxamide], in experiment [1], the inhibition in vivo at 0.01 % is at least 50%.

Usually IC50 stands for the concentration that gives 50% inhibition. High values mean lower potency, low ones higher potency. A word on the Ki: it is a measure of affinity in units of concentration, obtained from inhibition or displacement. With `C[C@@H](Oc1ccccc1)C(=O)N1Cc2c(NC(=O)C3([Si](C)(C)C)CCC3)n[nH]c2C1(C)C` [IV-1258, (R)—N-[6,6-Dimethyl-5-(2-phenoxypropanoyl)-1,4,5,6-tetrahydropyrrolo[3,4-c]pyrazol-3-yl]-1-(trimethylsilyl)cyclobutanecarboxamide], in experiment [2], the IC50 is at most 500 nM. The inhibition constant Ki at PAK4 was at least 500 nM; on CDK2, at least 1000 nM; on CDK7, at most 50 nM.

For `CC(C)C(=O)OC[C@@H](NC(=O)N1Cc2c(NC(=O)C3([Si](C)(C)C)CCC3)n[nH]c2C1(C)C)c1ccccc1` [V-1454, (S)-2-{6,6-Dimethyl-3-[1-(trimethylsilyl)cyclobutanecarboxamido]-1,4,5,6-tetrahydropyrrolo[3,4-c]pyrazole-5-carboxamido}-2-phenylethyl isobutanoate], in experiment [1], the inhibition in vivo at 1 % is at least 50%.

As to `CC(C)(O)C[C@@H](NC(=O)N1Cc2c(NC(=O)C3([Si](C)(C)C)CC3)n[nH]c2C1(C)C)c1ccccc1` [III-298, (R)—N-(3-Hydroxy-3-methyl-1-phenylbutyl)-6,6-dimethyl-3-[1-(trimethylsilyl)cyclopropanecarboxamido]-4,6-dihydropyrrolo[3,4-c]pyrazole-5(1H)-carboxamide], the concentration for half-maximal inhibition (IC50) in experiment [2] is at most 500 nM. Also, the values for the inhibitory constant (Ki) on PAK4, at CDK2 and on CDK7 were at least 500 nM, at least 1000 nM and at most 50 nM, respectively.

With `CC(C)C(NC(=O)N1Cc2c(NC(=O)C3([Si](C)(C)C)CCC3)n[nH]c2C1(C)C)C(C)(C)CO` (centres unmarked) [IV-822, N-(1-Hydroxy-2,2,4-trimethylpentan-3-yl)-6,6-dimethyl-3-[1-(trimethylsilyl)cyclobutanecarboxamido]-4,6-dihydropyrrolo[3,4-c]pyrazole-5(1H)-carboxamide], the IC50 in experiment [2] was at most 500 nM. Also, the Ki is at least 500 nM at PAK4, at least 1000 nM at CDK2 and at most 50 nM on CDK7.
